The target in the experiment is T1, human CXCR4 receptor (Homo sapiens, UniProt P61073).
T1 construct: expressed in transfected cells
In words: Measurement of intracellular Ca+2 responses (FLIPR), antagonism of the SDF-1α response. Conditions: for IC50: HEK-Gqi5 cells stably expressing human CXCR4, Fluo-4 FLIPR, antagonism of SDF-1α 1.9 nM (EC65); for CXCR4 (% Inh): percent antagonism of SDF-1α 1.9 nM (EC65) response, HEK-Gqi5 human CXCR4 cells, value in brackets. Type of experiment: cell-based. The procedure: Measurement of Intracellular Ca^+2 Responses for CXCR4 Compounds
HEK-Gqi5 cells stably expressing the human CXCR4 receptor were utilized for these studies. The growth media for the CXCR4 receptor expressing cell line was DMEM high glucose medium supplemented with 10% fetal bovine serum (FBS), 1% antibiotic-antimycotic, 50 ug/ml hygromycin B, and 400 μg/ml geneticin. Ten thousand cells per well were plated into 384-well poly-D-lysine coated plates one day prior to use. On the day of the experiment, the cells were washed twice with Hank's Balanced Salt Solution supplemented with 20 mM hepes (HBSS/hepes buffer). The cells were then dye loaded with 2 uM Fluo-4 diluted in the HBSS/Hepes buffer and incubated at 37° C. for 40 minutes. Extracellular dye was removed by washing the cell plates four times prior to placing the plates in the FLIPR (Fluorometric Imaging Plate Reader, Molecular Devices). Ligands were diluted in HBSS/Hepes buffer and prepared in 384-well microplates. The positive control, stromal-cell derived factor-1 (SDF-1α), was diluted in HBSS/Hepes buffer with 4 mg/ml fatty acid free bovine serum albumin. Two drug additions were made by the FLIPR. The first drug addition was the test drug in concentrations ranging from 2.44 nM to 40,000 nM. After this addition, fluorescent measurements were taken. Any calcium release in response to this drug addition represents agonist activity of the compounds. The second drug addition was SDF-1α at a final concentration of 1.9 nM (EC65). Fluorescence measurements were also taken after this second drug addition and were used to determine the ability of the test compounds to antagonize the SDF-1α response. Results were expressed as EC50 and efficacy values, as well as IC50 and percent antagonism values. As controls, SDF-1α (CXCR4 agonist) and AMD3100 (CXCR4 antagonist) dose-response curves were also determined in each study.

For orientation: IC50 means the midpoint of a concentration-inhibition curve. A higher IC50 goes with weaker potency.

T1 sequence (P61073 whole entry): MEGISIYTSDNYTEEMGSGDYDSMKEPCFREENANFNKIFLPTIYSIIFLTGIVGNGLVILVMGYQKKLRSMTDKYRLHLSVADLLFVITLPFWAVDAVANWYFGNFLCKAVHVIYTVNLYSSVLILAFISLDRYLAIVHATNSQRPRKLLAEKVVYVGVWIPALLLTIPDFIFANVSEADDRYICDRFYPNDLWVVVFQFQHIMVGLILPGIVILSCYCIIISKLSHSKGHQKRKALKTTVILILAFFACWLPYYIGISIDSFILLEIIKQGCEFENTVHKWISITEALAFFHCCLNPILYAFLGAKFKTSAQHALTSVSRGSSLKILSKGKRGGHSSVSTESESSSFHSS

Consider `COc1cccc(N(C)C)c1CN1CCC(Nc2nc(NCCCN)nc3ccccc23)CC1` [Compound 80, N˜2˜-(3-Aminopropyl)-N˜4˜-{1-[2-(dimethylamino)-6-methoxybenzyl]piperidin-4-yl}quinazoline-2,4-diamine], for which the “CXCR4 (% Inh)” value was 94%. Moreover, inhibition (values in nM) was half-maximal at 130 nM (IC50).
As to `COc1cc2nc(NCCc3ncc[nH]3)nc(NC3CCN(Cc4c(OCCN(C)C)cccc4N(C)C)CC3)c2cc1OC` [Compound 210, N˜4˜-(1-{2-(Dimethylamino)-6-[2-(dimethylamino)ethoxy]benzyl}piperidin-4-yl)-N˜2˜-[2-(1H-imidazol-2-yl)ethyl]-6,7-dimethoxyquinazoline-2,4-diamine], the “CXCR4 (% Inh)” value turned out to be 97%. This compound also gave a concentration for half-maximal inhibition (IC50) (values in nM) of 65 nM.
In the same order, the values of `COc1cc2nc(NCc3cc[nH]n3)nc(NC3CCN(Cc4c(OCCN(C)C)cccc4N(C)C)CC3)c2cc1OC` [Compound 216, N˜4˜-(1-{2-(Dimethylamino)-6-[2-(dimethylamino)ethoxy]benzyl}piperidin-4-yl)-6,7-dimethoxy-N˜2˜-(1H-pyrazol-3-ylmethyl)quinazoline-2,4-diamine] are 100% and 32 nM.
As to `CCN(CC)CCCCCNc1nc(NC2CCN(Cc3c(OC)cccc3N(C)C)CC2)c2ccccc2n1` [Compound 67, N2-(5-(Diethylamino)pentyl)-N4-(1-(2-(dimethylamino)-6-methoxybenzyl)piperidin-4-yl)quinazoline-2,4-diamine], the “CXCR4 (% Inh)” value was 88%. The compound also yielded an IC50 (values given in μM) of 1900 nM.
Turning to `COc1cc2nc(NCc3cncs3)nc(NC3CCN(Cc4c(OCCN(C)C)cccc4N(C)C)CC3)c2cc1OC` [Compound 197, N˜4˜-(1-{2-(Dimethylamino)-6-[2-(dimethylamino)ethoxy]benzyl}piperidin-4-yl)-6,7-dimethoxy-N˜2˜-(1,3-thiazol-5-ylmethyl)quinazoline-2,4-diamine], the “CXCR4 (% Inh)” value was found to be 85%. The compound further yielded an IC50 (values in nM) of 34 nM.
Turning to `COc1cccc(N(C)C)c1CN1CCC(Nc2nc(N3CCC3)nc3ccccc23)CC1` [Compound 88, 2-(Azetidin-1-yl)-N-(1-(2-(dimethylamino)-6-methoxybenzyl)piperidin-4-yl)quinazolin-4-amine], the “CXCR4 (% Inh)” value came to 94%. For the setting “values given in μM”, this compound showed a 50% inhibitory concentration (IC50) of 1900 nM.
In the case of `CCN(CC)CCCNc1nc(NC2CCN(Cc3c(OC(C)C)cccc3N(C)C)CC2)c2cc(OC)c(OC)cc2n1` [Compound 139, N˜2˜-[3-(Diethylamino)propyl]-N˜4˜-{1-[2-(dimethylamino)-6-isopropoxybenzyl]piperidin-4-yl}-6,7-dimethoxyquinazoline-2,4-diamine], the “CXCR4 (% Inh)” value is 93%. Besides, the midpoint of inhibition (values given in μM), the IC50, lay at 1400 nM.
Take `COc1cc2nc(NCCc3nccs3)nc(NC3CCN(Cc4c(OCCN(C)C)cccc4N(C)C)CC3)c2cc1OC` [Compound 209, N˜4˜-(1-{2-(Dimethylamino)-6-[2-(dimethylamino)ethoxy]benzyl}piperidin-4-yl)-6,7-dimethoxy-N˜2˜-[2-(1,3-thiazol-2-yl)ethyl]quinazoline-2,4-diamine]: the “CXCR4 (% Inh)” value is on record as 92%. Under “values in nM”, this compound displayed a half-maximal inhibitory concentration (IC50) of 47 nM.
In the same order, the values of `COc1cccc(N(C)C)c1CN1CCC(Nc2nc(NCCN3CCN(C)CC3)nc3ccccc23)CC1` [Compound 154, N˜4˜-{1-[2-(Dimethylamino)-6-methoxybenzyl]piperidin-4-yl}-N˜2˜-[2-(4-methylpiperazin-1-yl)ethyl]quinazoline-2,4-diamine] are 97% and 560 nM.
In the same order, the values of “N˜4˜-(1-{2-(Dimethylamino)-6-[2-(dimethylamino)ethoxy]benzyl}piperidin-4-yl)-6,7-dimethoxy-N2(1H-1,2,4-triazol-5-ylmethyl)quinazoline-2,4-diamine [Compound 211]” are 98% and 25 nM.
Regarding `COCCCNc1nc(NC2CCN(Cc3c(OC)cccc3N(C)C)CC2)c2ccccc2n1` [Compound 87, N4-(1-(2-(Dimethylamino)-6-methoxybenzyl)piperidin-4-yl)-N2-(3-methoxypropyl)quinazoline-2,4-diamine], the “CXCR4 (% Inh)” value was determined as 96%. The same compound came in with an IC50 (values in nM) of 810 nM.
In the same order, the values of `COc1cc2nc(NCCN(C)C)nc(NC3CCN(Cc4c(OCCN5CCCC5)cccc4N(C)C)CC3)c2cc1OC` [Compound 193, N˜2˜-[2-(Dimethylamino)ethyl]-N˜4˜-{1-[2-(dimethylamino)-6-(2-pyrrolidin-1-ylethoxy)benzyl]piperidin-4-yl}-6,7-dimethoxyquinazoline-2,4-diamine] are 95% and 65 nM.
For the compound `COc1cccc(N(C)C)c1CN1CCC(Nc2nc(NCCCn3ccnc3)nc3ccccc23)CC1` [Compound 120, N2-(3-(1H-Imidazol-1-yl)propyl)-N4-(1-(2-(dimethylamino)-6-methoxybenzyl)piperidin-4-yl)quinazoline-2,4-diamine], the “CXCR4 (% Inh)” value came to 95%. For the same compound, the concentration for half-maximal inhibition (IC50) (values given in μM) was 1700 nM.
In the same order, the values of `CCN(CC)CCCNc1nc(NC2CCN(Cc3ccccc3N)CC2)c2ccccc2n1` [Compound 149, N˜4˜-[1-(2-Aminobenzyl)piperidin-4-yl]-N˜2˜-[3-(diethylamino)propyl]quinazoline-2,4-diamine] are 68% and > 10000 nM.
In the case of `COc1cccc(N(C)C)c1CN1CCC(Nc2nc(NCCCN(C)C)nc3ccccc23)CC1` [Compound 68, N4-(1-(2-(Dimethylamino)-6-methoxybenzyl)piperidin-4-yl)-N2-(3-(dimethylamino)propyl)quinazoline-2,4-diamine], the “CXCR4 (% Inh)” value is reported as 95%. This compound also came in with an IC50 (values in nM) of 41 nM.
Take `COc1cc2nc(NC[C@@H]3CCNC3)nc(NC3CCN(Cc4c(OCCN(C)C)cccc4N(C)C)CC3)c2cc1OC` [Compound 123, (R)—N-4-(1-(2-(Dimethylamino)-6-(2-(dimethylamino)ethoxy)benzyl)piperidin-4-yl)-6,7-dimethoxy-N2-(pyrrolidin-3-ylmethyl)quinazoline-2,4-diamine]: the “CXCR4 (% Inh)” value worked out at 96%. Where the note is “values in nM”, this compound returned a half-maximal inhibitory concentration (IC50) of 84 nM.
With `CCCCNc1nc(NC2CCN(Cc3c(OC)cccc3N(C)C)CC2)c2ccccc2n1` [Compound 91, N2-Butyl-N4-(1-(2-(dimethylamino)-6-methoxybenzyl)piperidin-4-yl)quinazoline-2,4-diamine], the “CXCR4 (% Inh)” value was determined as 80%. Besides, it took 2000 nM to reach half-maximal inhibition (values given in μM) (IC50).
In the case of `CCN1CCC(CNc2nc(NC3CCN(Cc4c(OC)cccc4N(C)C)CC3)c3ccccc3n2)C1` (stereo not shown) [Compound 107, N4-(1-(2-(Dimethylamino)-6-methoxybenzyl)piperidin-4-yl)-N2-((1-ethylpyrrolidin-3-yl)methyl)quinazoline-2,4-diamine], the “CXCR4 (% Inh)” value is listed as 96%. For the setting “values in nM”, this compound returned an IC50 of 653 nM.
In the same order, the values of `COc1cccc(N(C)C)c1CN1CCC(Nc2nc(NCc3ccccn3)nc3ccccc23)CC1` [Compound 84, N4-(1-(2-(Dimethylamino)-6-methoxybenzyl)piperidin-4-yl)-N2-(pyridin-2-ylmethyl)quinazoline-2,4-diamine] are 95% and 574 nM.
In the same order, the values of `CCN(CC)CCNc1nc(NC2CCN(Cc3ccccc3N(C)C)CC2)c2ccccc2n1` [Compound 36, N2-(2-(Diethylamino)ethyl)-N4-(1-(2-(dimethylamino)benzyl)piperidin-4-yl)quinazoline-2,4-diamine] are 90% and 800 nM.
In the case of `COc1cccc(N(C)C)c1CN1CCC(Nc2nc(N3CC(CN(C)C(=O)OC(C)(C)C)C3)nc3ccccc23)CC1` [Compound 103, tert-Butyl (1-(4-(1-(2-(Dimethylamino)-6-methoxybenzyl)piperidin-4-ylamino)quinazolin-2-yl)azetidin-3-yl)methyl(methyl)carbamate], the “CXCR4 (% Inh)” value amounted to 82%. The IC50 (values given in μM) worked out at 4100 nM.
In the same order, the values of `COc1cccc(N(C)C)c1CN1CCC(Nc2nc(NC[C@@H]3CCN(C(=O)OC(C)(C)C)C3)nc3ccccc23)CC1` [Compound 112, (S)-tert-Butyl 3-((4-(1-(2-(Dimethylamino)-6-methoxybenzyl)piperidin-4-ylamino)quinazolin-2-ylamino)methyl)pyrrolidine-1-carboxylate] are 77% and 2100 nM.
On to `COc1cccc(N(C)C)c1CN1CCC(Nc2nc(NCCCN3CCCC3=O)nc3ccccc23)CC1` [Compound 89, 1-(3-(4-(1-(2-(Dimethylamino)-6-methoxybenzyl)piperidin-4-ylamino)quinazolin-2-ylamino)propyl)pyrrolidin-2-one], for which the “CXCR4 (% Inh)” value amounted to 92%. The same compound gave an IC50 (values given in μM) of 1400 nM.

(Values after patent US8193203B2, “Bicyclic compounds having activity at the CXCR4 receptor” (Allergan, Inc., priority 2008, dated 2012).)
